{"source": "patent US20050197350A1", "about": "“Novel quinoline, tetrahydroquinazoline, and pyrimidine derivatives and methods of treatment related to the use thereof” (TAISHO PHARMACEUTICAL CO., LTD., priority 2003, published 2005)"}
{"test_system": "MCH receptors", "assay": "MCH receptor activity class (method not given)", "conditions": "class by percent of control at 10^-7 M or IC50"}
{"smiles": "COc1cccc(NC(=O)N[C@H]2CC[C@@H](Nc3nc4c(c(N(C)C)n3)CCCC4)CC2)c1", "note": "[compound 1834]", "class": "3 (Class 3 The value of percent of control at 10^−7 M was more than 60% or the value of IC50 was more than 200 nM.)"}
{"smiles": "COc1ccc(CNC(=O)N[C@H]2CC[C@@H](Nc3nc4c(c(N(C)C)n3)CCCC4)CC2)cc1", "note": "[compound 1835]", "class": "3 (Class 3 The value of percent of control at 10^−7 M was more than 60% or the value of IC50 was more than 200 nM.)"}
{"smiles": "Cc1cccc(CNC(=O)N[C@H]2CC[C@@H](Nc3nc4c(c(N(C)C)n3)CCCC4)CC2)c1", "note": "[compound 1836]", "class": "3 (Class 3 The value of percent of control at 10^−7 M was more than 60% or the value of IC50 was more than 200 nM.)"}
{"smiles": "CCCNC(=O)N[C@H]1CC[C@@H](Nc2nc3c(c(N(C)C)n2)CCCC3)CC1", "note": "[compound 1837]", "class": "3 (Class 3 The value of percent of control at 10^−7 M was more than 60% or the value of IC50 was more than 200 nM.)"}
{"smiles": "CN(C)c1nc(N[C@H]2CC[C@@H](NC(=O)Nc3cccc(C(F)(F)F)c3)CC2)nc2c1CCCC2", "note": "[compound 1838]", "class": "3 (Class 3 The value of percent of control at 10^−7 M was more than 60% or the value of IC50 was more than 200 nM.)"}
{"smiles": "CCO[Si](CCCNC(=O)N[C@H]1CC[C@@H](Nc2nc3c(c(N(C)C)n2)CCCC3)CC1)(OCC)OCC", "note": "[compound 1839]", "class": "3 (Class 3 The value of percent of control at 10^−7 M was more than 60% or the value of IC50 was more than 200 nM.)"}
{"smiles": "Cc1cccc(NC(=O)N[C@H]2CC[C@@H](Nc3nc4c(c(N(C)C)n3)CCCC4)CC2)c1", "note": "[compound 1840]", "class": "3 (Class 3 The value of percent of control at 10^−7 M was more than 60% or the value of IC50 was more than 200 nM.)"}
{"smiles": "Cc1ccc(NC(=O)N[C@H]2CC[C@@H](Nc3nc4c(c(N(C)C)n3)CCCC4)CC2)cc1Cl", "note": "[compound 1841]", "class": "3 (Class 3 The value of percent of control at 10^−7 M was more than 60% or the value of IC50 was more than 200 nM.)"}
{"smiles": "CC(NC(=O)NC1CCC(Nc2nc3c(c(N(C)C)n2)CCCC3)CC1)c1cccc2ccccc12", "note": "(centres unmarked) [compound 1842]", "class": "3 (Class 3 The value of percent of control at 10^−7 M was more than 60% or the value of IC50 was more than 200 nM.)"}
{"smiles": "CN(C)c1nc(N[C@H]2CC[C@@H](NC(=O)Nc3ccccc3OC(F)F)CC2)nc2c1CCCC2", "note": "[compound 1843]", "class": "3 (Class 3 The value of percent of control at 10^−7 M was more than 60% or the value of IC50 was more than 200 nM.)"}
{"smiles": "COC(=O)c1ccccc1NC(=O)N[C@H]1CC[C@@H](Nc2nc3c(c(N(C)C)n2)CCCC3)CC1", "note": "[compound 1844]", "class": "3 (Class 3 The value of percent of control at 10^−7 M was more than 60% or the value of IC50 was more than 200 nM.)"}
{"smiles": "CSc1ccccc1NC(=O)N[C@H]1CC[C@@H](Nc2nc3c(c(N(C)C)n2)CCCC3)CC1", "note": "[compound 1845]", "class": "3 (Class 3 The value of percent of control at 10^−7 M was more than 60% or the value of IC50 was more than 200 nM.)"}
{"smiles": "CN(C)c1nc(N[C@H]2CC[C@@H](NC(=O)Nc3cc(Cl)c(Cl)cc3Cl)CC2)nc2c1CCCC2", "note": "[compound 1846]", "class": "2 (Class 2: The value of percent of control at 10^−7 M was from 40% to 60% or the value of IC′50 was from 50 nM to 200 nM.)"}
{"smiles": "Cc1ccc(NC(=O)N[C@H]2CC[C@@H](Nc3nc4c(c(N(C)C)n3)CCCC4)CC2)c(C)c1", "note": "[compound 1847]", "class": "3 (Class 3 The value of percent of control at 10^−7 M was more than 60% or the value of IC50 was more than 200 nM.)"}
{"smiles": "CN(C)c1nc(N[C@H]2CC[C@@H](NC(=O)Nc3cc(F)ccc3F)CC2)nc2c1CCCC2", "note": "[compound 1848]", "class": "3 (Class 3 The value of percent of control at 10^−7 M was more than 60% or the value of IC50 was more than 200 nM.)"}
{"smiles": "COc1ccc(OC)c(NC(=O)N[C@H]2CC[C@@H](Nc3nc4c(c(N(C)C)n3)CCCC4)CC2)c1", "note": "[compound 1849, N-(2,5-dimethoxyphenyl)-N′-(cis-4-{[4-(dimethylamino)-5,6,7,8-tetrahydroquinazolin-2-yl]amino}cyclohexyl)urea]", "class": "2 (Class 2: The value of percent of control at 10^−7 M was from 40% to 60% or the value of IC′50 was from 50 nM to 200 nM.)"}
{"smiles": "Cc1ccc(C)c(NC(=O)N[C@H]2CC[C@@H](Nc3nc4c(c(N(C)C)n3)CCCC4)CC2)c1", "note": "[compound 1850]", "class": "3 (Class 3 The value of percent of control at 10^−7 M was more than 60% or the value of IC50 was more than 200 nM.)"}
{"smiles": "CN(C)c1nc(N[C@H]2CC[C@@H](NC(=O)Nc3ccccc3Cc3ccccc3)CC2)nc2c1CCCC2", "note": "[compound 1851]", "class": "3 (Class 3 The value of percent of control at 10^−7 M was more than 60% or the value of IC50 was more than 200 nM.)"}
{"smiles": "CN(C)c1nc(N[C@H]2CC[C@@H](NC(=O)Nc3c(F)cc(F)cc3Br)CC2)nc2c1CCCC2", "note": "[compound 1852]", "class": "3 (Class 3 The value of percent of control at 10^−7 M was more than 60% or the value of IC50 was more than 200 nM.)"}
{"smiles": "CN(C)c1nc(N[C@H]2CC[C@@H](NC(=O)Nc3ccc(C(F)(F)F)cc3Cl)CC2)nc2c1CCCC2", "note": "[compound 1853]", "class": "3 (Class 3 The value of percent of control at 10^−7 M was more than 60% or the value of IC50 was more than 200 nM.)"}
{"smiles": "CN(C)c1nc(N[C@H]2CC[C@@H](NC(=O)Nc3ccc([N+](=O)[O-])cc3Cl)CC2)nc2c1CCCC2", "note": "[compound 1854]", "class": "3 (Class 3 The value of percent of control at 10^−7 M was more than 60% or the value of IC50 was more than 200 nM.)"}
{"smiles": "CN(C)c1nc(N[C@H]2CC[C@@H](NC(=O)Nc3cc(C(F)(F)F)ccc3Cl)CC2)nc2c1CCCC2", "note": "[compound 1855]", "class": "3 (Class 3 The value of percent of control at 10^−7 M was more than 60% or the value of IC50 was more than 200 nM.)"}
{"smiles": "Cc1ccc(Cl)c(NC(=O)N[C@H]2CC[C@@H](Nc3nc4c(c(N(C)C)n3)CCCC4)CC2)c1", "note": "[compound 1856]", "class": "3 (Class 3 The value of percent of control at 10^−7 M was more than 60% or the value of IC50 was more than 200 nM.)"}
{"smiles": "CCOC(=O)c1ccccc1NC(=O)N[C@H]1CC[C@@H](Nc2nc3c(c(N(C)C)n2)CCCC3)CC1", "note": "[compound 1857]", "class": "3 (Class 3 The value of percent of control at 10^−7 M was more than 60% or the value of IC50 was more than 200 nM.)"}
{"smiles": "CN(C)c1nc(N[C@H]2CC[C@@H](NC(=O)Nc3cccc(C(F)(F)F)c3F)CC2)nc2c1CCCC2", "note": "[compound 1858]", "class": "3 (Class 3 The value of percent of control at 10^−7 M was more than 60% or the value of IC50 was more than 200 nM.)"}
{"smiles": "CN(C)c1nc(N[C@H]2CC[C@@H](NC(=O)Nc3cc(C(F)(F)F)ccc3F)CC2)nc2c1CCCC2", "note": "[compound 1859]", "class": "3 (Class 3 The value of percent of control at 10^−7 M was more than 60% or the value of IC50 was more than 200 nM.)"}
{"smiles": "Cc1ccc(F)c(NC(=O)N[C@H]2CC[C@@H](Nc3nc4c(c(N(C)C)n3)CCCC4)CC2)c1", "note": "[compound 1860]", "class": "3 (Class 3 The value of percent of control at 10^−7 M was more than 60% or the value of IC50 was more than 200 nM.)"}
{"smiles": "COc1cc([N+](=O)[O-])ccc1NC(=O)N[C@H]1CC[C@@H](Nc2nc3c(c(N(C)C)n2)CCCC3)CC1", "note": "[compound 1861]", "class": "3 (Class 3 The value of percent of control at 10^−7 M was more than 60% or the value of IC50 was more than 200 nM.)"}
{"smiles": "COc1ccc([N+](=O)[O-])cc1NC(=O)N[C@H]1CC[C@@H](Nc2nc3c(c(N(C)C)n2)CCCC3)CC1", "note": "[compound 1862]", "class": "3 (Class 3 The value of percent of control at 10^−7 M was more than 60% or the value of IC50 was more than 200 nM.)"}
{"smiles": "CN(C)c1nc(N[C@H]2CC[C@@H](NC(=O)Nc3ccc4ccccc4c3)CC2)nc2c1CCCC2", "note": "[compound 1863]", "class": "3 (Class 3 The value of percent of control at 10^−7 M was more than 60% or the value of IC50 was more than 200 nM.)"}
{"smiles": "CN(C)c1nc(N[C@H]2CC[C@@H](NC(=O)Nc3ccccc3Oc3ccccc3)CC2)nc2c1CCCC2", "note": "[compound 1864]", "class": "3 (Class 3 The value of percent of control at 10^−7 M was more than 60% or the value of IC50 was more than 200 nM.)"}
{"smiles": "CSc1cccc(NC(=O)N[C@H]2CC[C@@H](Nc3nc4c(c(N(C)C)n3)CCCC4)CC2)c1", "note": "[compound 1865]", "class": "3 (Class 3 The value of percent of control at 10^−7 M was more than 60% or the value of IC50 was more than 200 nM.)"}
{"smiles": "CN(C)c1nc(N[C@H]2CC[C@@H](NC(=O)Nc3cccc(SC(F)(F)F)c3)CC2)nc2c1CCCC2", "note": "[compound 1866]", "class": "3 (Class 3 The value of percent of control at 10^−7 M was more than 60% or the value of IC50 was more than 200 nM.)"}
{"smiles": "CN(C)c1nc(N[C@H]2CC[C@@H](NC(=O)NCc3ccc(Cl)c(Cl)c3)CC2)nc2c1CCCC2", "note": "[compound 1867]", "class": "3 (Class 3 The value of percent of control at 10^−7 M was more than 60% or the value of IC50 was more than 200 nM.)"}
{"smiles": "COc1cc(NC(=O)N[C@H]2CC[C@@H](Nc3nc4c(c(N(C)C)n3)CCCC4)CC2)cc(OC)c1", "note": "[compound 1868]", "class": "3 (Class 3 The value of percent of control at 10^−7 M was more than 60% or the value of IC50 was more than 200 nM.)"}
{"smiles": "Cc1cc(C)cc(NC(=O)N[C@H]2CC[C@@H](Nc3nc4c(c(N(C)C)n3)CCCC4)CC2)c1", "note": "[compound 1869]", "class": "3 (Class 3 The value of percent of control at 10^−7 M was more than 60% or the value of IC50 was more than 200 nM.)"}
{"smiles": "COC(=O)c1cccc(NC(=O)N[C@H]2CC[C@@H](Nc3nc4c(c(N(C)C)n3)CCCC4)CC2)c1", "note": "[compound 1870]", "class": "3 (Class 3 The value of percent of control at 10^−7 M was more than 60% or the value of IC50 was more than 200 nM.)"}
{"smiles": "CCc1cccc(NC(=O)N[C@H]2CC[C@@H](Nc3nc4c(c(N(C)C)n3)CCCC4)CC2)c1", "note": "[compound 1871]", "class": "3 (Class 3 The value of percent of control at 10^−7 M was more than 60% or the value of IC50 was more than 200 nM.)"}
{"smiles": "CN(C)c1nc(N[C@H]2CC[C@@H](NC(=O)Nc3cc(F)cc(C(F)(F)F)c3)CC2)nc2c1CCCC2", "note": "[compound 1872]", "class": "3 (Class 3 The value of percent of control at 10^−7 M was more than 60% or the value of IC50 was more than 200 nM.)"}
{"smiles": "CN(C)c1nc(N[C@H]2CC[C@@H](NC(=O)NCc3cccc(F)c3)CC2)nc2c1CCCC2", "note": "[compound 1873]", "class": "3 (Class 3 The value of percent of control at 10^−7 M was more than 60% or the value of IC50 was more than 200 nM.)"}
{"smiles": "CN(C)c1nc(N[C@H]2CC[C@@H](NC(=O)Nc3cccc([N+](=O)[O-])c3)CC2)nc2c1CCCC2", "note": "[compound 1874]", "class": "3 (Class 3 The value of percent of control at 10^−7 M was more than 60% or the value of IC50 was more than 200 nM.)"}
